Experimental data reported in patent publication US8450278B2, “MUC18 targeting peptides” (Board of Regents, The University of Texas System, priority 2008, dated 2013).
“Also recorded” adds a separate entry of the source.

Test system: B16 melanoma cells
Assay: Phage binding assay on B16 melanoma cells pre and post co-culture with B-1 lymphocytes
Assay type: cell-based, mouse
Source text: The inventors used a random phage library displaying the insert CX7C(C, cysteine; X, any residue) for selection of peptides binding to melanoma cells post co-culture with B-1 lymphocytes (Giordano et al., 2001). As a pre-clearing step, 10^6 B16 cells without exposure to B-1 lymphocytes were detached, washed and resuspended in RPMI containing 2% BSA plus 10^9 transducing units (TU) of unselected phage library. Cells and phage were transferred to the top of a non-miscible organic lower phase (dibutyl phthalate: cyclohexane, 9:1 [v:v]) and centrifuged at 10,000 g for 10 min. The unbound phage population remaining in the aqueous upper phase (pre-cleared library) was collected into a fresh eppendorf tube and incubated with 10^6 B16 cells isolated post co-culture with B-1 lymphocytes. Phage in the organic lower phase were recovered from the cell pellet by bacterial host infection (Pasqualini et al., 2000; Cardo-Vila et al., 2003; Marchio et al., 2004; Marchio et al., 2004; Kolonin et al., 2004; Arap et al, 2004; Hajitou et al., 2006).
For phage binding assays to B16 melanoma, 10^6 cells pre and post co-culture with B-1 lymphocytes were incubated with each specific phage clone (10^9 TU) or negative controls. Melanoma cells and phage were centrifuged through the organic phase and the cell-bound phage clones were recovered by bacterial infection (Giordano et al., 2001).

CLFMRLAWC [SEQ ID NO:1]
phage/peptide binding to melanoma cells (in words): marked enrichment in phage binding; also recorded: selectively bind to cancerous cells
